In PMC7214178, “Ligand‐specific recycling profiles determine distinct potential for chronic analgesic tolerance of delta‐opioid receptor (DOPr) agonists” (Journal of Cellular and Molecular Medicine, 2020):

Experiments:
Flag‐DOPr = assay: DOPr recycling after recovery from agonist‐induced internalization in primary cortical neuron cultures; format: cell-based, Murine; settings: for Intracellular immunoreactivity after 60 min recovery vs immediately after treatment / Surface labelling after recovery: 10 µmol/L; for Intracellular immunoreactivity after 60 min recovery vs immediately after treatment: then 60 min recovery in absence of ligand, permeabilized neurons; for Effect of ECE2 inhibitor 6634449 on redistribution of internalized receptors during recovery: agonist 10 µmol/L, 6634449 20 μmol/L during 60 min recovery; for Effect of ECE2 inhibitor 6634449 on redistribution of internalized receptors during recovery / Surface labelling after recovery: 60 min; for Surface labelling after recovery: then 60 min recovery, non‐permeabilized neurons
Experimental: Primary neuronal cultures were prepared from rat post‐natal prefrontal cortex (P0‐P2) as previously described. ^19 Briefly, three cultures were independently prepared from 8 to 12 pups each. Pups were cryo‐anaesthetized, and brains were removed and transferred into ice‐cold dissociation solution (NaS0_4 90 mmol/L; K2SO4 30 mmol/L; MgCl2 5.8 mmol/L; CaCl20.25 mmol/L; HEPES 10 mmol/L; glucose 20 mmol/L; pH 7.4). Following dissection, the frontal cortex was digested in papain solution (20 U/mL; 40 minutes at 37°C), and the product passed through Pasteur pipettes of progressively decreasing diameter for mechanical dissociation. The suspension obtained was centrifuged, and cells were then resuspended and diluted to a density of 2.5 million/mL, before plating onto glass coverslips pre‐coated with collagen/poly l‐lysine (each at 0.1 mg/mL). Culture proceeded in supplemented Neurocell medium (B27 4%; 100 U/mL penicillin‐streptomycin; GlutaMAX 2%; FBS 10%) for 24 hours. Coverslips were then transferred to a six‐well plate containing 2 mL of Neurocell medium/well and transfected with Flag‐DOPr (8 µg/well), using a calcium phosphate transfection protocol previously. ^19 Murine DORs tagged with the Flag epitope at the N terminus were a generous gift from Dr M. von Zastrow (University of California at San Francisco, San Francisco, CA).
Immunolabelling of surface receptors for quantification of trafficking was performed as previously described. ^19 Briefly, primary cultures expressing Flag‐DOPrs were incubated at 37°C with Neurocell medium containing Ca^2+‐dependent mouse anti‐Flag M1 antibody (1:100; Sigma). After 30 minutes incubation with the antibody, vehicle (0.05% DMSO in Neurocell) or agonist (TIPP, deltorphin II; SNC‐80; SB235863; 10 μmol/L) was added to the medium for 60 minutes. At the end of this period, cultured neurons were washed at 37°C once in calcium‐free PBS and then in PBS in order to remove treatment agonist as well as antibody bound to receptors that may have remained at the membrane after agonist exposure. For visualization of internalized receptors, cultures were immediately fixed with 4% PFA, permeabilized with PBS/0.1% Triton (20 minutes at room temperature (RT)), blocked with PBS/BSA 1% (10 minutes at RT) and incubated with secondary antimouse Alexa 488‐conjugated donkey antibody (1:1000; Invitrogen, A21202). Alternatively, cultured neurons were allowed to recover for 60 minutes in the absence of ligand before a second round of calcium‐free PBS wash was completed before fixation, permeabilization and incubation with secondary antibody. The latter procedure allowed to remove antibody bound to Flag‐DOPrs that translocated to the surface during recovery ensuring the exclusive labelling of receptors that were retained intracellularly. ^26 Another set of neurons was similarly treated with agonist or vehicle and then allowed to recover for 60 minutes following which they were fixed and incubated with secondary antibody without permeabilization, so as to exclusively reveal Flag‐DOPrs that reappeared at the surface during recovery from internalization; measures of surface labelling were normalized to intracellular labelling produced during internalization. Recycling was thus established by taking two independent measures: (a) cytoplasmic labelling density lost during recovery from treatment and (b) gain in surface labelling density when neurons were allowed to recover from agonist‐induced internalization. In experiments in which 6634449 was introduced in the medium during recovery, the concentration used was 20 μmol/L.
Cytoplasmic and surface labelling densities were quantified with ImageJ using a previously described method, ^27 with small modifications. ^16 In particular, total cytoplasmic labelling density was obtained by measuring fluorescence intensity within the region confined between the external and nuclear perimeters, and dividing this value by the corresponding area. […]

[1] = system: rat model of streptozotocin (STZ)‐induced diabetic neuropathy; assay: Heterologous tolerance to a common probe (deltorphin II ED50) before and after 6‐day treatment, with or without 6634449; format: in vivo; settings: for Heterologous tolerance (response to deltorphin II ED50) with 6634449 co‐administration: 6634449 or vehicle i.t. 20 min before each of six agonist injections at ED80, five rats/group; for Tolerance to common probe deltorphin II (ED50) after 6‐day treatment: probe i.t. one day before and one day after six i.t. injections at ED80, 7 rats/group
Experimental: Type I diabetes was induced by systemic injection of streptozotocin (STZ, 65 mg/kg, i.p.) according to a standardized methodology, which allows development of persistent diabetic neuropathy after the first week of treatment. ^20 At the end of the first week, blood was extracted from the tail vein and blood glucose levels were measured with a glucometer (Accu‐Chek Aviva; Roche Diagnostics) prior to evaluation of analgesia on the second week.
Mechanical allodynia is the consequence of maladaptive neuroplasticity following nerve damage. ^24 In a model of diabetic neuropathy as the one used in this study, hyperglycaemia contributes to generate reactive oxygen species which induce microglia activation and inflammatory mediators. ^25 , ^26 These mediators attenuate the activity of Gly/GABA interneurons in superficial layers ^24 , ^27 , ^28 , ^29 and disrupt the inhibitory control that prevents innocuous touch stimuli from producing pain which leads to allodynia. ^30 DOPrs are expressed in these light‐touch mechanoreceptors ^31 and up‐regulated during sensitization, ^32 , ^33 making DOPr agonists elective for relieving this type of pain. Allodynia was evaluated using Von Frey filaments as previously described. ^19 Briefly, rats were accustomed for 15 min on a metal mesh floor under an inverted plastic box (20 × 10 × 10 cm) in a quiet room dedicated to this behavioural test. After habituation, the plantar surface of the right and left hind legs was alternately touched (6‐8 seconds) with von Frey filaments of progressively wider diameter in order to find the threshold of pressure required to produce withdrawal. The mechanical threshold response was obtained by consigning the pressure in grams that would result in withdrawal of the paw in 50% of 10 trials. A normal rat responds to tactile pressures of 12‐15 g whereas neuropathic rats respond to pressures of 4‐6 g. ^24
To evaluate homologous tolerance, each agonist was injected i.t. once daily for six consecutive days, at ED80 derived from dose‐response curves (deltorphin‐IIED80: 0.30 nmol/30 μL; TIPPED80: 0.40 nmol/30 μL; SB235863ED80: 1.7 nmol/30 μL and SNC‐80ED80: 0.55 nmol/30 μL). Immediately after drug administration, mechanical allodynia was measured every 15 minutes until the analgesic response disappeared. […] Prior to starting any pharmacological treatment, the presence of allodynia was confirmed. Treatments and measures were carried out randomly by two different experimenters to ensure blinding to treatment for the person assessing allodynia. In a series of experiments, an inhibitor of endothelin‐converting enzyme 2 (ECE2), 6634449, was administered by i.t injection (3 nmol/30 μL) 20 minutes prior to administration of DOPr ligands from 2 to 7 days. The vehicle (4% DMSO diluted in CSF sterile) was given as control. The dose of 6634449 used in this study was based on results previously published. ^25
Figure 1 Experimental design. One week after STZ administration, repeated treatments with DOPr agonists were started. Before starting chronic treatment with ED80 of deltorphin II, TIPP, SB235863 or SNC‐80, animals were tested to establish the baseline allodynia. Immediately after, they were injected with deltorphin II at a dose corresponding to ED50, which was repeated at the end of treatment. Allodynia measures were taken every 15 min after each injection until analgesic effects disappeared. Chronic tolerance was evaluated by comparing analgesic response to successive i.t. injections of each agonist between days 2 and 6. Difference in analgesic response to deltorphin II ED50 in days 1 and 8 allowed to establish tolerance induced by the different agonists to this common probe

DOPr = system: DOPr; parameters: method as in PMID 24174495; settings: cited from earlier work

| Molecule | Intracellular immunoreactivity after 60 min recovery vs immediately after treatment (Flag‐DOPr) | Effect of ECE2 inhibitor 6634449 on redistribution of internalized receptors during recovery (Flag‐DOPr) | Heterologous tolerance (response to deltorphin II ED50) with 6634449 co‐administration [1] | Tolerance to common probe deltorphin II (ED50) after 6‐day treatment [1] | Internalization in HEK cells (DOPr) | Surface labelling after recovery (Flag‐DOPr) |
| --- | --- | --- | --- | --- | --- | --- |
| deltorphin II | significantly reduced | remain trapped in the cytosol | reduced analgesic effect | without effect | marked internalization | – |
| CCC(C)COC(=O)c1[nH]c2c(c1C)CC1C3Cc4ccc(OC)c5c4C1(CCN3C)C2O5.Cl (stereo not drawn) [SB235863, [8R‐(4bS*,8aα,8aβ,12bβ)]7,10‐dimethyl‐1‐methoxy‐11‐(2‐ethylpropyl)oxycarbonyl 5,6,7,8,12,12b‐hexahydro‐(9H)‐4,8‐methanobenzofuro[3,2‐e]pyrrolo[2,3‐g]isoquinoline hydrochloride] | not different from the one observed immediately after the end of treatment | without effect | remained unchanged | induced cross‐tolerance | minimal internalization | less |
| C=CCN1C[C@H](C)N([C@H](c2ccc(C(=O)N(CC)CC)cc2)c2cccc(OC)c2)C[C@H]1C [SNC‐80, (+)‐4‐[(αR)‐α‐((2S,5R)‐4‐allyl‐2,5‐dimethyl‐1‐piperazinyl)‐3‐methoxybenzyl]‐N,N‐diethylbenzamide] | not different from the one observed immediately after the end of treatment | without effect | remained unchanged | induced cross‐tolerance | marked internalization | less |
